Laboratory results: US9738655B2, “Tetrahydroisoquinolines containing substituted azoles as factor XIa inhibitors” (BRISTOL-MYERS SQUIBB COMPANY, priority 2013, dated 2017)
Counter-ions that a name gives are not always drawn. Like-named read-outs stand apart in the source and are kept apart here.

How the values were obtained:
[1] = biological target: purified human plasma kallikrein (Homo sapiens (Human), UniProt P03952); experiment: Plasma kallikrein enzyme inhibition assay (chromogenic substrate S-2302); type: biochemical
[2] = biological target: purified human Factor XIa (Homo sapiens (Human), UniProt P03951); experiment: Factor XIa enzyme inhibition assay (chromogenic substrate S-2366)
[3] = measured at 25° C. (no asterisk)
[4] = read-out: Factor XIa Ki, measured at 25° C.

Sequence of purified human Factor XIa (P03951 388-625): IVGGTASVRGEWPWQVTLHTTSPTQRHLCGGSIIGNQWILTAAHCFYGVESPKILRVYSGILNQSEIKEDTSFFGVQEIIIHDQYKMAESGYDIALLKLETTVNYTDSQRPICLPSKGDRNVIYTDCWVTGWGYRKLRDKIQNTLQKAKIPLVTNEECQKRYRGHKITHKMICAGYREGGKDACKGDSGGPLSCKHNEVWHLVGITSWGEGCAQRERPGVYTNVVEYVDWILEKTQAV
Sequence of purified human Factor XIa (P03951 19-387 partner): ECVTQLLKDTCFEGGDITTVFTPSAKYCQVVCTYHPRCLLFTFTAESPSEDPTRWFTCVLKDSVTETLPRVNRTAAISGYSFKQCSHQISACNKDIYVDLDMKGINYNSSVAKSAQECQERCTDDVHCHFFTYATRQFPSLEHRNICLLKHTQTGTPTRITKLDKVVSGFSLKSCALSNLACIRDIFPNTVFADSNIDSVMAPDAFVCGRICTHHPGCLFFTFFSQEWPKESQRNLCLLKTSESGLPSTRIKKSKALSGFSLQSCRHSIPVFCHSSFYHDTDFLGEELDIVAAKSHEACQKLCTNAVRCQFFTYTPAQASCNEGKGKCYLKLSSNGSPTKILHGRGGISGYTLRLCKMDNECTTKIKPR
Sequence of purified human plasma kallikrein (P03952 391-638): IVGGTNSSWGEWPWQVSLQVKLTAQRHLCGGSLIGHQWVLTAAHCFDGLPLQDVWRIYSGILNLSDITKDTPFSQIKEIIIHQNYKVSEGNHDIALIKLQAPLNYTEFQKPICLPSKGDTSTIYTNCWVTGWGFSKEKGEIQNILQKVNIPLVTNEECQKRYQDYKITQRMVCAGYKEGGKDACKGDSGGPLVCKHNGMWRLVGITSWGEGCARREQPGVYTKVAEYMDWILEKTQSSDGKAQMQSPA
Sequence of purified human plasma kallikrein (P03952 20-390 partner): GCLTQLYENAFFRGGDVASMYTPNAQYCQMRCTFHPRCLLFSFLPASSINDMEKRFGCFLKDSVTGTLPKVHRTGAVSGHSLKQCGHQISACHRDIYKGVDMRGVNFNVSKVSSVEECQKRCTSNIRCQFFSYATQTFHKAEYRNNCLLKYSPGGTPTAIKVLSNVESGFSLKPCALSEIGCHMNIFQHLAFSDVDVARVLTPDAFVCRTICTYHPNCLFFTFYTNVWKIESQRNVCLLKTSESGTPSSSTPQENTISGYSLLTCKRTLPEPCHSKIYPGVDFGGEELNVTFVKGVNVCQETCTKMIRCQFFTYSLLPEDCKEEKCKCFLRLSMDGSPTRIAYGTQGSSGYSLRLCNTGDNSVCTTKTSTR

Row | SMILES | Ki [1, 3] | Ki [2] | Ki ([1]; measured at 37° C. (*)) | Ki [2, 4]
1 | COC1CCN(c2cccc3c2CCN(C(=O)c2coc(-c4cccc(Cl)c4F)n2)C3C(=O)Nc2ccc(C(=O)O)cc2)CC1 (racemic) [Example 310, 4-(2-(2-(3-chloro-2-fluorophenyl)oxazole-4-carbonyl)-5-(4-methoxypiperidin-1-yl)-1,2,3,4-tetrahydroisoquinoline-1-carboxamido)benzoic acid, TFA salt] | 610 nM | 82 nM | – | –
2 | COC1CCN(c2cccc3c2CCN(C(=O)c2cc(-c4cccc(Cl)c4)n[nH]2)C3C(=O)Nc2ccc(C(=O)O)cc2)CC1 (racemic) [Example 311, 4-(2-(3-(3-chlorophenyl)-1H-pyrazole-5-carbonyl)-5-(4-methoxypiperidin-1-yl)-1,2,3,4-tetrahydroisoquinoline-1-carboxamido)benzoic acid, TFA salt] | 787 nM | 18.4 nM | – | –
3 | COC1CCN(c2cccc3c2CCN(C(=O)c2cnn(-c4ccncc4)c2N)C3C(=O)Nc2ccc(C(=O)O)cc2)CC1 (racemic) [Example 313, 4-(2-(5-amino-1-(pyridin-4-yl)-1H-pyrazole-4-carbonyl)-5-(4-methoxypiperidin-1-yl)-1,2,3,4-tetrahydroisoquinoline-1-carboxamido)benzoic acid, TFA salt] | – | 4820 nM | > 6000 nM | –
4 | CN(C)C1CCN(c2cccc3c2CCN(C(=O)c2cnn(-c4cccc(Cl)c4F)c2)[C@H]3C(=O)Nc2ccc(C(=O)O)cc2)CC1 (single isomer, unassigned) [Example 51, bis-TFA salt] | 340 nM | – | – | 54.5 nM
5 | CN(C)C1CCN(c2cccc3c2CCN(C(=O)c2cn(-c4cccc(Cl)c4F)cn2)[C@H]3C(=O)Nc2ccc(C(=O)O)cc2)CC1 (single isomer, unassigned) [Example 54, bis-TFA salt] | 50.4 nM | – | – | 8.83 nM

More lines, in order of falling Ki [1, 3], values ahead:

Row | Ki [1, 3] | Ki [2] | Ki ([1]; measured at 37° C. (*)) | Ki [2, 4] | SMILES
6 | 28.8 nM | < 5 nM | – | – | COC1CCN(c2cccc3c2CCN(C(=O)c2cnn(-c4cccc(Cl)c4F)c2N)C3C(=O)Nc2ccc(C(=O)O)cc2)CC1 (racemic) [Example 309, 4-(2-(5-amino-1-(3-chloro-2-fluorophenyl)-1H-pyrazole-4-carbonyl)-5-(4-methoxypiperidin-1-yl)-1,2,3,4-tetrahydroisoquinoline-1-carboxamido)benzoic acid, 2 TFA salt]
7 | 27.3 nM | < 5 nM | – | – | COC1CCN(c2cccc3c2CCN(C(=O)c2cn(-c4c(F)ccc(Cl)c4F)cn2)C3C(=O)Nc2ccc(C(=O)O)cc2)CC1 (racemic) [Example 312, 4-(2-(1-(3-chloro-2,6-difluorophenyl)-1H-imidazole-4-carbonyl)-5-(4-methoxypiperidin-1-yl)-1,2,3,4-tetrahydroisoquinoline-1-carboxamido)benzoic acid, TFA salt]
8 | 6.25 nM | < 5 nM | – | – | CN1CCN(c2cccc3c2CCN(C(=O)c2cn(-c4cccc(Cl)c4F)cn2)C3C(=O)Nc2ccc(C(=O)O)cc2)CC1=O (racemic) [Example 284, 4-(2-(1-(3-chloro-2-fluorophenyl)-1H-imidazole-4-carbonyl)-5-(4-methyl-3-oxopiperazin-1-yl)-1,2,3,4-tetrahydroisoquinoline-1-carboxamido)benzoic acid, TFA salt]
9 | 1.79 nM | – | – | < 5 nM | CN(C)C1CCN(c2cccc3c2CCN(C(=O)c2cnn(-c4cccc(Cl)c4F)c2)[C@@H]3C(=O)Nc2ccc(C(=O)O)cc2)CC1 (single isomer, unassigned) [Example 52, bis-TFA salt]
10 | 1.39 nM | – | – | < 5 nM | CN(C)C1CCN(c2cccc3c2CCN(C(=O)c2cn(-c4cccc(Cl)c4F)nn2)[C@@H]3C(=O)Nc2ccc(C(=O)O)cc2)CC1 (single isomer, unassigned) [Example 49, bis-TFA salt]
11 | 0.92 nM | – | – | < 5 nM | CN(C)C1CCN(c2cccc3c2CCN(C(=O)c2cn(-c4cccc(Cl)c4F)cn2)[C@@H]3C(=O)Nc2ccc(C(=O)O)cc2)CC1 (single isomer, unassigned) [Example 55, bis-TFA salt]
